Source: patent publication US11739074B2, “Ras inhibitors” (Revolution Medicines, Inc., priority 2019, dated 2023)
Where two headings read alike, the source gives them in different places.

How the values were obtained:
AsPC-1 (K-Ras G12D) [1] = assay: Potency assay: pERK in AsPC-1 cells; format: cell-based; settings: Homo sapiens
AsPC-1 (K-Ras G12D) [2] = assay: CellTiter-Glo cell viability assay, AsPC-1; format: cell-based; settings: Homo sapiens, ASPC1, 120 h
Outline: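 Direct compound addition to plated cells; 5-day exposure; ~30 min RT equilibration; CellTiter-Glo luminescence. Normalization: (sample/avg DMSO)*100; 4-parameter logistic curve fit.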

[3] = ASPC1, read-out: pERK EC50 (AsPC-1 KRAS G12D)
[4] = read-out: AsPC-1 Cell Viability IC50, AsPC-1, K-Ras G12D, 5-day treatment
[5] = ASPC1, AsPC-1 cells, K-Ras G12D, read-out: pERK EC50 (AsPC-1 KRAS G12D)
[6] = AsPC-1, K-Ras G12D, 5-day treatment, read-out: AsPC-1 Cell Viability IC50

Row | SMILES | EC50 (AsPC-1 (K-Ras G12D) [1]; [3]) | IC50 (AsPC-1 (K-Ras G12D) [2]; [4]) | EC50 (AsPC-1 (K-Ras G12D) [1]; [5]) | IC50 (AsPC-1 (K-Ras G12D) [2]; [6])
1 | CCn1c(-c2cccnc2[C@H](C)OC)c2c3cc(ccc31)-c1cc(O)cc(c1)C[C@H](NC(=O)[C@H](C(C)C)N(C)C(=O)CNC(=O)[C@@H]1CN1)C(=O)N1CCC[C@H](N1)C(=O)OCC(C)(C)C2 [Compound 147] | < 5 µM | 1 to 10 µM |  | 
2 | CCn1c(-c2cccnc2[C@H](C)OC)c2c3cc(ccc31)-c1csc(n1)C[C@H](NC(=O)[C@H](C(C)C)N(C)C(=O)N(C)C1CN(C(=O)[C@@H]3CN3)C1)C(=O)N1CCC[C@H](N1)C(=O)OCC(C)(C)C2 [Compound 221] |  |  | < 5 µM | 1 to 10 µM
3 | CCn1c(-c2cccnc2[C@H](C)OC)c2c3cc(ccc31)-c1cc(O)cc(c1)C[C@H](NC(=O)[C@H](C(C)C)N(C)C(=O)[C@@H](C)N(C)C(=O)[C@H]1CN1)C(=O)N1CCC[C@H](N1)C(=O)OCC(C)(C)C2 [Compound 114] | < 5 µM | 1 to 10 µM |  | 
4 | CCn1c(-c2cccnc2[C@H](C)OC)c2c3cc(ccc31)-c1cc(O)cc(c1)C[C@H](NC(=O)[C@H](C1CCCC1)N(C)C(=O)CN(C)C(=O)[C@H]1N[C@H]1C1(F)CC1)C(=O)N1CCC[C@H](N1)C(=O)OCC(C)(C)C2 [Compound 315] |  |  | < 5 µM | 0.1 to 1 µM
5 | CCn1c(-c2cccnc2[C@H](C)OC)c2c3cc(ccc31)-c1csc(n1)C[C@H](NC(=O)[C@H](C(C)C)N(C)C(=O)N(C)[C@H]1CCCN(C(=O)[C@H]3CN3)C1)C(=O)N1CCC[C@H](N1)C(=O)OCC(C)(C)C2 [Compound 295] |  |  | < 5 µM | 1 to 10 µM
6 | CCn1c(-c2cccnc2[C@H](C)OC)c2c3cc(ccc31)-c1cc(O)cc(c1)C[C@H](NC(=O)[C@H](C(C)C)N(C)C(=O)[C@H]1CN1)C(=O)N1CCC[C@H](N1)C(=O)OCC(C)(C)C2 [Compound 112] |  |  | < 5 µM | 1 to 10 µM
7 | CCn1c(-c2cnccc2COC)c2c3cc(ccc31)-c1cc(O)cc(c1)C[C@H](NC(=O)[C@H](C(C)C)N(C)C(=O)CN(C)C(=O)[C@H]1N[C@H]1C(=O)OC)C(=O)N1CCC[C@H](N1)C(=O)OCC(C)(C)C2 [Compound 51] | < 5 µM | > 10 µM |  | 
8 | CCn1c(-c2cccnc2[C@H](C)OC)c2c3cc(ccc31)-c1cc(O)cc(c1)C[C@H](NC(=O)[C@H](C(C)C)N(C)C(=O)[C@@]1(F)CCN(C(=O)[C@@H]3CN3)C1)C(=O)N1CCC[C@H](N1)C(=O)OCC(C)(C)C2 [Compound 185] |  |  | < 5 µM | 1 to 10 µM
9 | CCn1c(-c2cccnc2[C@H](C)OC)c2c3cc(ccc31)-c1cc(O)cc(c1)C[C@H](NC(=O)[C@H](C(C)C)N(C)C(=O)N1CCN(C(=O)[C@H]3CN3)CC1)C(=O)N1CCC[C@H](N1)C(=O)OCC(C)(C)C2 [Example 177, 4-((R)-aziridine-2-carbonyl)-N-((2S)-1-(((6^3S,4S)-1^1-ethyl-2^5-hydroxy-1^2-(2-((S)-1-methoxyethyl)pyridin-3-yl)-10,10-dimethyl-5,7-dioxo-6^1,6^2,6^3,6^4,6^5,6^6-hexahydro-1^1H-8-oxa-1(5,3)-indola-6(1,3)-pyridazina-2(1,3)-benzenacycloundecaphane-4-yl)amino)-3-methyl-1-oxobutan-2-yl)-N-methylpiperazine-1-carboxamide] |  |  | < 5 µM | 1 to 10 µM
10 | CCn1c(-c2cccnc2[C@H](C)OC)c2c3cc(ccc31)-c1cc(O)cc(c1)C[C@H](NC(=O)[C@H](C(C)C)N(C)C(=O)[C@H]1C[C@H]3CC[C@@H](C1)N3C(=O)[C@@H]1CN1)C(=O)N1CCC[C@H](N1)C(=O)OCC(C)(C)C2 [Compound 246] |  |  | < 5 µM | 1 to 10 µM
11 | CCn1c(-c2cccnc2[C@H](C)OC)c2c3cc(ccc31)-c1cc(O)cc(c1)C[C@H](NC(=O)[C@H](C(C)C)N(C)C(=O)[C@H]1CCN(S(=O)(=O)[C@H]3CN3C)C1)C(=O)N1CCC[C@H](N1)C(=O)OCC(C)(C)C2 (single isomer, unassigned) [Compound 57] |  |  | < 5 µM | 1 to 10 µM
12 | CCn1c(-c2cccnc2[C@H](C)OC)c2c3cc(ccc31)-c1cc(O)cc(c1)C[C@H](NC(=O)[C@H](C(C)C)N(C)C(=O)[C@H]1C[C@H](NC(=O)[C@H]3CN3)C1)C(=O)N1CCC[C@H](N1)C(=O)OCC(C)(C)C2 [Compound 182] |  |  | < 5 µM | > 10 µM
13 | CCn1c(-c2cccnc2[C@H](C)OC)c2c3cc(ccc31)-c1csc(n1)C[C@H](NC(=O)[C@H](C(C)C)N(C)C(=O)N(C)[C@H]1CCN(C(=O)[C@@H]3CN3)C1)C(=O)N1CCC[C@H](N1)C(=O)OCC(C)(C)C2 [Compound 310] |  |  | < 5 µM | 1 to 10 µM
14 | CCn1c(-c2cccnc2[C@H](C)OC)c2c3cc(ccc31)-c1cc(O)cc(c1)C[C@H](NC(=O)[C@H](C(C)C)N(C)C(=O)[C@H]1CCN(C(=O)[C@@H]3N[C@@H]3C3CC3)C1)C(=O)N1CCC[C@H](N1)C(=O)OCC(C)(C)C2 [Compound 198] |  |  | < 5 µM | 0.1 to 1 µM
15 | CCn1c(-c2cccnc2[C@H](C)OC)c2c3cc(ccc31)-c1cc(O)cc(c1)C[C@H](NC(=O)[C@H](C(C)C)N(C)C(=O)[C@H]1C[C@@H]3N[C@@H]3C1)C(=O)N1CCC[C@H](N1)C(=O)OCC(C)(C)C2 [Compound 286] |  |  | < 5 µM | 1 to 10 µM
16 | CCn1c(-c2cccnc2[C@H](C)OC)c2c3cc(ccc31)-c1cc(O)cc(c1)C[C@H](NC(=O)[C@H](C(C)C)N(C)C(=O)c1ccc(NC(=O)[C@H]3CN3)cn1)C(=O)N1CCC[C@H](N1)C(=O)OCC(C)(C)C2 [Compound 127] |  |  | < 5 µM | > 10 µM
17 | CCn1c(-c2cccnc2[C@H](C)OC)c2c3cc(ccc31)-c1cc(O)cc(c1)C[C@H](NC(=O)[C@H](C(C)C)N(C)C(=O)CN(C)C(=O)[C@@H]1N[C@@H]1C1COC1)C(=O)N1CCC[C@H](N1)C(=O)OCC(C)(C)C2 [Compound 281] | < 5 µM | 0.1 to 1 µM |  | 
18 | CCn1c(-c2cccnc2[C@H](C)OC)c2c3cc(ccc31)-c1cc(O)cc(c1)C[C@H](NC(=O)[C@H](C(C)C)N(C)C(=O)CN(C)C(=O)[C@H]1N[C@H]1C1COC1)C(=O)N1CCC[C@H](N1)C(=O)OCC(C)(C)C2 [Compound 282] | < 5 µM | 1 to 10 µM |  | 
19 | CCn1c(-c2cccnc2[C@H](C)OC)c2c3cc(ccc31)-c1cc(O)cc(c1)C[C@H](NC(=O)[C@H](C(C)C)N(C)C(=O)[C@@H]1CCCN(C(=O)[C@@H]3CN3)C1)C(=O)N1CCC[C@H](N1)C(=O)OCC(C)(C)C2 [Compound 238] |  |  | < 5 µM | 1 to 10 µM
20 | CCn1c(-c2cccnc2[C@H](C)OC)c2c3cc(ccc31)-c1cc(O)cc(c1)C[C@H](NC(=O)[C@H](C(C)C)N(C)C(=O)[C@]1(F)CCN(C(=O)[C@H]3CN3)C1)C(=O)N1CCC[C@H](N1)C(=O)OCC(C)(C)C2 [Compound 311] |  |  | < 5 µM | 0.1 to 1 µM
21 | CCn1c(-c2cccnc2[C@H](C)OC)c2c3cc(ccc31)-c1cc(O)cc(c1)C[C@H](NC(=O)[C@H](C(C)C)N(C)C(=O)[C@H]1CC[C@@H](C)N1C(=O)[C@@H]1CN1)C(=O)N1CCC[C@H](N1)C(=O)OCC(C)(C)C2 [Compound 153] | < 5 µM | 1 to 10 µM |  | 
22 | CCn1c(-c2cccnc2[C@H](C)OC)c2c3cc(ccc31)-c1cc(O)cc(c1)C[C@H](NC(=O)[C@H](C(C)C)N(C)C(=O)CN(C)C(=O)[C@@H]1CN1CCCN1CCCC1=O)C(=O)N1CCC[C@H](N1)C(=O)OCC(C)(C)C2 (stereo partly shown) [Compound 269] | < 5 µM | 1 to 10 µM |  | 
23 | CCn1c(-c2cnccc2COC)c2c3cc(ccc31)-c1cccc(c1)C[C@H](NC(=O)[C@H](C(C)C)N(C)C(=O)CCN=C=NC(C)(C)C)C(=O)N1CCC[C@H](N1)C(=O)OCC(C)(C)C2 [79 A and B] |  |  | < 5 µM | 1 to 10 µM
